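Briefly, cells in 96-well plates were exposed to five compound concentrations for 48 h, and endpoints were estimated by linear interpolation. TGI: concentration producing complete growth inhibition.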
Key:
Experiment in all cases: NCI anticancer screen, dose series, 48 h
[1] = system: ACHN renal
[2] = system: BT-549 breast
[3] = system: DU-145 prostate
[4] = system: EKVX NSCLC
[5] = system: HCT-15 colon
[6] = system: KM12 colon
[7] = system: MDA-MB-435
[8] = system: NCI-H226 lung
[9] = system: NCI-H460 lung
[10] = system: OVCAR-3 ovarian
[11] = system: PC-3 prostate
[12] = system: RXF 393 renal
[13] = system: SK-MEL-28 melanoma
[14] = system: SK-OV-3 ovarian
[15] = system: SNB-19 CNS
[16] = system: SR leukemia
[17] = system: U251 CNS
[18] = system: UACC-257 melanoma
[19] = system: UACC-62 melanoma

| Compound | TGI [1] [µM] | TGI [2] [µM] | TGI [3] [µM] | TGI [4] [µM] | TGI [5] [µM] | TGI [6] [µM] | TGI [7] [µM] | TGI [8] [µM] | TGI [9] [µM] | TGI [10] [µM] | TGI [11] [µM] | TGI [12] [µM] | TGI [13] [µM] | TGI [14] [µM] | TGI [15] [µM] | TGI [16] [µM] | TGI [17] [µM] | TGI [18] [µM] | TGI [19] [µM] |
| --- | --- | --- | --- | --- | --- | --- | --- | --- | --- | --- | --- | --- | --- | --- | --- | --- | --- | --- | --- |
| COC(=O)[C@@H]1C[C@]2(Br)c3ccccc3N(S(=O)(=O)c3ccccc3)[C@@H]2N1C(=O)OC | > 100 | > 100 | > 100 | > 100 | > 100 | > 100 | > 100 | > 100 | > 100 | > 100 | > 100 | 61.8 | > 100 | > 100 | > 100 | > 100 | > 100 | 14.6 | > 100 |
| COc1ccc2c(=O)c3c([nH]c2c1)OCC3=O | > 100 | > 100 | > 100 | > 100 | > 100 | > 100 | > 100 | > 100 | > 100 | – | > 100 | > 100 | > 100 | > 100 | > 100 | > 100 | > 100 | > 100 | > 100 |
| O=S1(=O)c2ccccc2N2C(c3ccccc3)=NOC2(c2ccccc2)CC1c1ccc(Br)cc1 (configuration not stated) | > 100 | > 100 | > 100 | > 100 | > 100 | > 100 | > 100 | > 100 | > 100 | > 100 | > 100 | > 100 | > 100 | > 100 | > 100 | > 100 | > 100 | > 100 | > 100 |
| Cc1cccc2c(NCCN(C)C)c3cccc(C(=O)NCCN(C)C)c3nc12 | 4.33 | 4.55 | 3.61 | 4.29 | 13.9 | 1.04 | 1.1 | 5.68 | 4.08 | 5.54 | 6.73 | 2.54 | 8.37 | 27.1 | 11.2 | 0.319 | 3.82 | 2.47 | 0.311 |
| CN(C)/C=C/c1c2c(nc3ccccc13)C(=O)c1cccnc1C2=O | 2.28 | 1.6 | 1.47 | 22.9 | 1.07 | 1.56 | 1.56 | – | 0.532 | 1.09 | 11.1 | 3.48 | 1.84 | 1.16 | 1.95 | 0.907 | 5.9 | 1.8 | 1.25 |
| C=CCc1cccc2cc(C(=O)Nc3ccc(C)cc3)c(=N)oc12 | > 100 | > 100 | > 100 | > 100 | > 100 | > 100 | > 100 | > 100 | > 100 | > 100 | > 100 | > 100 | > 100 | > 100 | > 100 | > 100 | > 100 | > 100 | > 100 |
